Patent US7087375B1, “Method for determining the mechanism of HIV RT inhibitors” (priority 2000, dated 2006)
Where “and” joins values, the source holds several entries; their conditions need not be identical. Equal entries are not always repeated.

Legend:
[1] = tested on: HXB2 site-directed mutant M41L, T215Y; assay type: cell-based; conditions: virus M41L
[2] = tested on: HXB2 site-directed mutant D67N, K70R; assay type: cell-based; conditions: virus D67N
[3] = tested on: HXB2 site-directed mutant M41L, M184V, T215Y; assay type: cell-based; conditions: virus M41L
[4] = tested on: HXB2 site-directed mutant M41L, D67N, K70R, M184V, T215Y; assay type: cell-based; conditions: virus M41L
[5] = tested on: HXB2 site-directed mutant T69S-SS; assay type: cell-based; conditions: virus T69S-SS
[6] = tested on: HXB2 site-directed mutant M41L, T69S-SS, T215Y; assay type: cell-based; conditions: virus M41L
[7] = tested on: HXB2 site-directed mutant T69S-SG; assay type: cell-based; conditions: virus T69S-SG
[8] = tested on: HXB2 site-directed mutant M41L, T69S-SG, T215Y; assay type: cell-based; conditions: virus M41L
[9] = tested on: HXB2 site-directed mutant T69S-AG; assay type: cell-based; conditions: virus T69S-AG
[10] = tested on: HXB2 site-directed mutant M41L, T69S-AG, T215Y; assay type: cell-based; conditions: virus M41L
[11] = tested on: HXB2 site-directed mutant V75T; assay type: cell-based; conditions: virus V75T
[12] = tested on: HXB2 site-directed mutant Q151M; assay type: cell-based; conditions: virus Q151M
[13] = tested on: wild type HXB2 virus; assay: HIV drug susceptibility assay (recombinant virus, MT-4 cells); conditions: for IC50: Human immunodeficiency virus 1, HXB2, MT4, read-out: mean IC50 for the wild type control virus; for Virus Assay fold resistance: wild type HXB2 virus (reference)

Row | SMILES | Fold resistance in IC50 relative to HXB2 [1] | Fold resistance in IC50 relative to HXB2 [2] | Fold resistance in IC50 relative to HXB2 [3] | Fold resistance in IC50 relative to HXB2 [4] | Fold resistance in IC50 relative to HXB2 [5] [fold] | Fold resistance in IC50 relative to HXB2 [6] | Fold resistance in IC50 relative to HXB2 [7] | Fold resistance in IC50 relative to HXB2 [8] [fold] | Fold resistance in IC50 relative to HXB2 [9] | Fold resistance in IC50 relative to HXB2 [10] [fold] | Fold resistance in IC50 relative to HXB2 [11] [fold] | Fold resistance in IC50 relative to HXB2 [12] [fold] | IC50 [13] [nM] | Virus Assay fold resistance [13] [fold]
1 | Nc1ccn([C@@H]2CS[C@H](CO)O2)c(=O)n1 [3TC, lamivudine] | 1.0 fold | 1.2 fold | >62 fold | >62 fold | 5.0 | 4.3 fold | 2.9 fold | 11.3 | 4.2 fold | 6.1 | 3.2 | 2.0 | 600 | –
2 | Cc1cn([C@H]2C[C@H](N=[N+]=[N-])[C@@H](CO)O2)c(=O)[nH]c1=O [AZT, zidovudine] | 26 fold and 26.2 fold and 26.2 (+/−10) fold | 11 fold and 11.2 fold | 5.2 fold and 5.2 (+/−1.5) fold | 6.4 fold and 6.4 (+/−1.5) fold | – | 12 fold and 12.0 fold and 12.0 (+/−2) fold | 8.1 fold and 8.1 (+/−4) fold | >96 | 7.0 fold and 7.0 (+/−4) fold | >96 | 1.4 | 2.1 | 12 | 1.0
3 | Nc1nc(NC2CC2)c2ncn([C@H]3C=C[C@@H](CO)C3)c2n1 [Abacavir, abacavir] | 4.4 fold | 1.8 fold | 7.1 fold | 4.1 fold | 3.0 | 4.6 fold | 4.0 fold | 9.6 | 7.0 fold | 12.0 | 1.8 | 2.8 | 2100 | –
4 | Cc1cn([C@H]2C=C[C@@H](CO)O2)c(=O)[nH]c1=O [d4T, stavudine] | 2.6 fold | 5.1 fold | 2.2 fold | 3.7 fold and 3.7 +/− 1.0 fold | 4.4 | 7.1 fold | 4.4 fold and 4.4 +/− 1.1 fold | 4.0 | 6.9 fold and 6.9 +/− 2.7 fold | 3.1 | – | – | 1200 | 1.0
5 | Nc1ccn([C@H]2CC[C@@H](CO)O2)c(=O)n1 [ddC, zalcitabine] | 2.5 fold | 1.3 fold | 5.0 fold | 5.1 fold | 3.2 | 1.5 fold | 1.7 fold | 2.8 | 2.8 fold | 2.5 | 3.0 | 5.4 | 710 | –
6 | O=c1[nH]cnc2c1ncn2[C@H]1CC[C@@H](CO)O1 [ddI, didanosine] | 0.9 fold | 0.3 fold | 8.0 fold | 2.4 fold | 4.3 | 2.5 fold | 2.1 fold | 5.0 | 3.8 fold | 6.5 | 2.5 | 3.5 | 1600 | –
